Drawing on patent publication US12679835B2, “Benzothiazinone derivative substituted with trifluoromethyl at 6-position, and preparation method therefor and use thereof” (SOOCHOW UNIVERSITY, priority 2021, dated 2026), this text covers half-life, MIC and solubility for twelve molecules.

What is called half-life is the time needed for the level to fall by half in the phase considered. A lower half-life goes with rapid decline. One may read the solubility as the dissolved amount per volume that the medium holds. Read a low solubility as a poorly soluble substance.

One series can be described thus: in vitro. The conditions noted are these: human, microsomes, pH 7.4.
The subject of series [1] is Mycobacterium tuberculosis (H37 Rv, standard tuberculosis strain). As to the kind of experiment: Anti-Mycobacterium tuberculosis activity, microwell Alamar Blue fluorometric method (MIC). Format: cell-based. To be noted: Mycobacterium tuberculosis H37Rv, 37° C., 8 days + 2 days, read-out: MIC (minimal inhibitory concentration). Background: The colour change of resazurin is a common sign of viable cells or microbes.

Another series in a line: physchem. The conditions noted are these: pH 7.4, aqueous buffer, kinetic from dmso stock.
The next series relates to Tuberculosis. To be noted: background statement, existing clinical first-line drug; cited from earlier work.

Values after ≈ are worked out from the molar mass of the structure shown. Bounds are passed on as bounds.

With `CN(Cc1nnc(-c2ccccc2)o1)c1nc(=O)c2cc(S(C)(=O)=O)cc([N+](=O)[O-])c2s1` [Control 1], in the series “in vitro”, the half-life at 1 μM worked out at 45.9 min. Also, the MIC in series [1] came to 0.014 µg/mL.
With `CN(Cc1cn(-c2ccccc2)nn1)c1nc(=O)c2cc(S(C)(=O)=O)cc([N+](=O)[O-])c2s1` [Control 2], in “in vitro”, the half-life at 1 μM came to 53.7 min. In series [1], the MIC was 0.022 µg/mL.
Turning to `CN(Cc1cn(-c2ccc(F)cc2)nn1)c1nc(=O)c2cc(S(C)(=O)=O)cc([N+](=O)[O-])c2s1` [Control 3], in the series “in vitro”, the half-life at 1 μM amounted to 27.6 min. Besides, the MIC in series [1] was 0.015 µg/mL.
On the same counts, the results for `CN(Cc1nnc(-c2ccc(F)cc2)s1)c1nc(=O)c2cc(S(C)(=O)=O)cc([N+](=O)[O-])c2s1` [Control 4] are 13.2 min and 0.024 µg/mL.
The matching figures for `CN(Cc1coc(-c2ccccc2)n1)c1nc(=O)c2cc(S(C)(=O)=O)cc([N+](=O)[O-])c2s1` [Control 5]: 21 min and 0.015 µg/mL.
`CN(Cc1nnc(-c2ccccc2)o1)c1nc(=O)c2cc(C(F)(F)F)cc([N+](=O)[O-])c2s1` [Example 1, 2-(methyl ((5-phenyl-1,3,4-oxadiazol-2-yl)methyl)amino)-8-nitro-6-(trifluoromethyl)-4H-benzo [e] [1,3] Thiazin-4-ketone]: the half-life at 1 μM in “in vitro” stood at 68.2 min. The MIC in series [1] amounted to 0.003 µg/mL. In the series “physchem”, this molecule came in with a solubility at 4 h of 0.15 µg/mL (≈ 0.324 µM).
For `CN(Cc1cn(-c2ccccc2)nn1)c1nc(=O)c2cc(C(F)(F)F)cc([N+](=O)[O-])c2s1` [Example 2, 2-(1-phenyl ((1-1H-1,2,3-triazole-4-yl)methyl) (methyl)amino)-8-nitro-6-(trifluoromethyl)-4H-benzo [e] [1,3] Thiazin-4-ketone], the half-life at 1 μM in the series “in vitro” stood at 100 min. Further, the MIC in series [1] was found to be 0.004 µg/mL. The solubility at 4 h in the series “physchem” was 0.13 µg/mL (≈ 0.281 µM).
Turning to `CN(Cc1cn(-c2ccc(F)cc2)nn1)c1nc(=O)c2cc(C(F)(F)F)cc([N+](=O)[O-])c2s1` [Example 3], the half-life at 1 μM in the series “in vitro” worked out at 116 min. In addition, the MIC in series [1] was 0.004 µg/mL. In the series “physchem”, the concentration in solution (solubility at 4 h) came to 0.12 µg/mL (≈ 0.25 µM).
`CN(Cc1nnc(-c2ccc(F)cc2)s1)c1nc(=O)c2cc(C(F)(F)F)cc([N+](=O)[O-])c2s1` [Example 4] yielded a half-life at 1 μM in “in vitro” of 34.3 min. In addition, the MIC in series [1] was determined as 0.016 µg/mL.
With `CN(Cc1coc(-c2ccccc2)n1)c1nc(=O)c2cc(C(F)(F)F)cc([N+](=O)[O-])c2s1` [Example 5, 2-(methyl((2-phenyloxazole-4-yl)methyl)amino)-8-nitro-6-(trifluoromethyl)-4H-benzo [e] [1,3] Thiazin-4-ketone], the half-life at 1 μM in “in vitro” was determined as 33.6 min. Further, the MIC in series [1] stood at 0.003 µg/mL. The solubility at 4 h in “physchem” came out at 0.11 µg/mL (≈ 0.238 µM).
The matching figures for `O=c1nc(N2CCN(CC3CCCCC3)CC2)sc2c([N+](=O)[O-])cc(C(F)(F)F)cc12` [PBTZ169]: 38 min, 0.00183 µg/mL and < 0.01 µg/mL.
As to `NNC(=O)c1ccncc1` [isoniazid INH, isoniazid], the MIC with Tuberculosis was 0.5 µM (≈ 0.0686 µg/mL); in series [1] it was 0.028 µg/mL.
